Experimental findings from patent US20210204544A1, “AGROCHEMICAL FORMULATIONS CONTAINING A POLYMERIC CRYSTAL GROWTH INHIBITOR” (priority 2018, published 2021) are described below.

The nature of the data set: Crystal growth of micronized fluopyram crystals suspended in water, with or without polymeric crystal growth inhibitor, on accelerated aging (FIG. 1). The data set is classed as physicochemical. The following applies: 54° C.; observed at 4 days, 35 days, then additional 2 weeks cycling -20° C./40° C.; Rhodoline 111 at 3% w/w, HPMC at 0.2% w/w. Here is the method:
FIG. 1 depicts the effect of polymeric crystal growth inhibitor on active ingredient while suspended in water. […] Polymeric crystal growth inhibitors were evaluated by suspending micronized fluopyram active ingredient crystal in water.

As for `O=C(NCCc1ncc(C(F)(F)F)cc1Cl)c1ccccc1C(F)(F)F` [fluopyram, N-[2-[3-chloro-5-(trifluoromethyl)pyridin-2-yl]ethyl]-2-(trifluoromethyl)benzamide], the “crystal growth of fluopyram crystals suspended in water” value is reported as “severe needle-shaped crystal growth”.
